Values quoted from earlier work as cited in patent publication US20240043473A1, “NOOTROPIC PEPTIDES FOR TREATING LYSOSOMAL STORAGE DISEASES” (Phoenix Nest Inc., priority 2021, published 2024).

System: BDNF and its signaling receptor TrkB in the hippocampus
Settings: in animals; cited from earlier work

Substance: Semax: synthetic analogue of ACTH(4-10), consisting of ACTH(4-7) and the C-terminal tripeptide Pro-Gly-Pro; MEHFPGP (SEQ ID NO: 1)
- levels and expression of BDNF and its signaling receptor TrkB in the hippocampus: rapidly elevates the levels and expression
- serotonergic and dopaminergic brain systems: rapidly activates
